Assay results as given in patent US12662465B2, “EGFR inhibitors” (Blueprint Medicines Corporation, priority 2021, dated 2026).
Like-named read-outs stand apart in the source and are kept apart here.

Key:
EGFR (d746-750) = biological target: T1, EGFR (d746-750) (Homo sapiens, UniProt P00533, DEL746-750); test: Biochemical EGFR inhibition assay (Caliper mobility shift), EGFR (d746-750); conditions: read-out: Enz EGFR_Exon19-del746-750 IC50
T1 construct: purchased SignalChem E10-122JG

EGFR L858R = biological target: T2, EGFR L858R (Homo sapiens, UniProt P00533, L858R); test: Biochemical EGFR inhibition assay (Caliper mobility shift), EGFR L858R; conditions: read-out: Enz EGFR_L858R IC50
T2 construct: purchased SignalChem E10-122BG

[1] = biological target: intracellular phosphorylation of EGFR (Tyr1068) in PC-9 cells (Ex19Del) (Homo sapiens, UniProt P00533, DEL746-750); test: PC-9 pEGFR AlphaLISA assay; format: cell-based; conditions: 4 hours compound incubation, read-out: Ext pEGFR_PC-9 Ex19Del IC50
[2] = 1.0 mM ATP or ATP Km, room temperature (25° C.)

Sequence of intracellular phosphorylation of EGFR (Tyr1068) in PC-9 cells (Ex19Del) (P00533 with tags, fused parts or gaps DEL746-750): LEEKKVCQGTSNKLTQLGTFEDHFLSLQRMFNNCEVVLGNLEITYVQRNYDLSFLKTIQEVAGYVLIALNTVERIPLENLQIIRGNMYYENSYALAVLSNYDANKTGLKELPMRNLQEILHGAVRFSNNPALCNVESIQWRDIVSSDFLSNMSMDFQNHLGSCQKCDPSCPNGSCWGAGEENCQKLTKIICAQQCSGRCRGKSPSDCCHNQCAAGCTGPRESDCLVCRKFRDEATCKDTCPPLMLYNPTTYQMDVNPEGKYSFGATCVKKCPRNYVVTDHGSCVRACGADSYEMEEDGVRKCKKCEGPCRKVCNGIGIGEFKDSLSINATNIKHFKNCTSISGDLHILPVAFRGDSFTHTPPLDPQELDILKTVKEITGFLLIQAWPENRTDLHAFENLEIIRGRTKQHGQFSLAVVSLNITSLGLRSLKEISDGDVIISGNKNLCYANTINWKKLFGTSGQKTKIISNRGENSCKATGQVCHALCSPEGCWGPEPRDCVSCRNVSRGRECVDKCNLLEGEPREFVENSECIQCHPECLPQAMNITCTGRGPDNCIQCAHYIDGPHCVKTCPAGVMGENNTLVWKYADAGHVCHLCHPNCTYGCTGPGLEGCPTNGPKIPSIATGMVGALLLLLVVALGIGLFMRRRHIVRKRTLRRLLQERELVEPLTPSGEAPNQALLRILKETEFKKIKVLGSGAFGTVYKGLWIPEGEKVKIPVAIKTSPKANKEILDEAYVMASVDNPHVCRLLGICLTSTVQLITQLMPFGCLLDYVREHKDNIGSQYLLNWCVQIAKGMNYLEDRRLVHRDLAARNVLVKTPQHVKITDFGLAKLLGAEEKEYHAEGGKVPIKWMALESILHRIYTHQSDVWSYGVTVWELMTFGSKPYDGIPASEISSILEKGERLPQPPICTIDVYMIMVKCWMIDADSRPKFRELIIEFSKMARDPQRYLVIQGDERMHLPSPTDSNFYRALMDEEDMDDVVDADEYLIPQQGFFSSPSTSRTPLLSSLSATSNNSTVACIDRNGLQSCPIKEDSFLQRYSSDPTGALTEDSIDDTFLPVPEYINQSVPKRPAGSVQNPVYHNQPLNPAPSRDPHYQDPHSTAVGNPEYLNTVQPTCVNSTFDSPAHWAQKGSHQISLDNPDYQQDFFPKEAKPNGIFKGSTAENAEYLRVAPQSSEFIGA
T2 sequence (P00533 25-1210 L858R): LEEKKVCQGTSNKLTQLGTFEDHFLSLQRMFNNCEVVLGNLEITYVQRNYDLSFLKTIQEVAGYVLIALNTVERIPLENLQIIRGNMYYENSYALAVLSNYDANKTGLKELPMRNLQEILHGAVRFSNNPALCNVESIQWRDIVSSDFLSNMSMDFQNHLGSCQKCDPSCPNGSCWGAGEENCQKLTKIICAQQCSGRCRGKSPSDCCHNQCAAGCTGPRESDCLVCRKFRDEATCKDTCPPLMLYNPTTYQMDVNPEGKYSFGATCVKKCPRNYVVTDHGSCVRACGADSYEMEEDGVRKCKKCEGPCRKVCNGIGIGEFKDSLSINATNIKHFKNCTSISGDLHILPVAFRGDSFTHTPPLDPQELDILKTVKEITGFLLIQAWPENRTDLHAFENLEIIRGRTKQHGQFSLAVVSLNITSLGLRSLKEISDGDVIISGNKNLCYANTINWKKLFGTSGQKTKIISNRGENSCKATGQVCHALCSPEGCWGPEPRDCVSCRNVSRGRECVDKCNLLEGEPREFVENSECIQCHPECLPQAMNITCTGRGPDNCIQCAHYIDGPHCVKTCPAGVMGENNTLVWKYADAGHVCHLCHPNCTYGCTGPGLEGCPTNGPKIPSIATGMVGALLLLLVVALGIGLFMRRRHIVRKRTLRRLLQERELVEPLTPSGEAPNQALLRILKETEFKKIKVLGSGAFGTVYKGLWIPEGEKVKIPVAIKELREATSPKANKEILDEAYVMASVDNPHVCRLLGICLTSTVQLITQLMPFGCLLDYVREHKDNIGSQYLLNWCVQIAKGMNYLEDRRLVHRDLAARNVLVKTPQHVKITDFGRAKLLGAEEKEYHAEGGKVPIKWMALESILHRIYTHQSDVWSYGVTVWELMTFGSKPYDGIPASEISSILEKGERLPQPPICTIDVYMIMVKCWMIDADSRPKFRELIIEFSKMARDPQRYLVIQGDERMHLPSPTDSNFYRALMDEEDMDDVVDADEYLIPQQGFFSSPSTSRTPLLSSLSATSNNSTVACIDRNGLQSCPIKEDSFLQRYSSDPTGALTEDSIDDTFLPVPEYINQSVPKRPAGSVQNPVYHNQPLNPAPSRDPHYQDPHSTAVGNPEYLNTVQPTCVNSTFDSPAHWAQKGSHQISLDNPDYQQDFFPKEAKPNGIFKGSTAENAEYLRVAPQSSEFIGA
T1 sequence (P00533 with tags, fused parts or gaps DEL746-750 limits assumed): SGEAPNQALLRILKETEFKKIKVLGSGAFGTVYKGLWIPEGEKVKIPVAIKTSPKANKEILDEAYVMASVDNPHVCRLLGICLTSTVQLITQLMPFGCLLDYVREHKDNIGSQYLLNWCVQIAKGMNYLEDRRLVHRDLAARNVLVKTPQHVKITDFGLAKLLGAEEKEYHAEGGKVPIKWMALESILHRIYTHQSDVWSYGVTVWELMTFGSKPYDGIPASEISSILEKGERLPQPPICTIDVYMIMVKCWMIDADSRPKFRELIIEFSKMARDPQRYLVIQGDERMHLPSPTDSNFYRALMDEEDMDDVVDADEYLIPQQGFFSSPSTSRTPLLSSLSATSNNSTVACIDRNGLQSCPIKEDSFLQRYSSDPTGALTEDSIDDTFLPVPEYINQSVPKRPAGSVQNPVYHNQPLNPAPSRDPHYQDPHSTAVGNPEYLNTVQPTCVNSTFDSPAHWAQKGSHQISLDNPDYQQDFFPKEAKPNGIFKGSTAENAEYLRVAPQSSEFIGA

Row | SMILES | IC50 (EGFR (d746-750)) [nM] | IC50 (EGFR L858R) [nM] | IC50 [1] [nM] | IC50 (EGFR (d746-750); [2]) [nM] | IC50 (EGFR L858R; [2]) [nM]
1 | C[C@@H](Oc1cc(-c2cnn(C(C)(C)CO)c2)cc2ncnc(Nc3ccc4ncccc4c3F)c12)C1COC1 [Example 47, (R)-2-(4-(4-(5-fluoroquinolin-6-ylamino)-5-(1-(oxetan-3-yl)ethoxy)quinazolin-7-yl)-1H-pyrazol-1-yl)-2-methylpropan-1-ol] | < 10 | < 10 | ≤ 10 | – | –
2 | C[C@H](CN1CCC1)Oc1cc(-c2cnn(C)c2)cc2ncnc(Nc3ccc4ncccc4c3F)c12 [Example 101, (R)-5-((1-(azetidin-1-yl)propan-2-yl)oxy)-N-(5-fluoroquinolin-6-yl)-7-(1-methyl-1H-pyrazol-4-yl)quinazolin-4-amine] | < 10 | 10.1 to 50 | ≤ 10 | – | –
3 | C[C@H](CN(C)C)Oc1cc(-c2cn[nH]c2)cc2ncnc(Nc3ccc4ncccc4c3F)c12 [Example 49, (R)-5-((1-(dimethylamino)propan-2-yl)oxy)-N-(5-fluoroquinolin-6-yl)-7-(1H-pyrazol-4-yl)quinazolin-4-amine] | < 10 | < 10 | ≤ 10 | – | –
4 | C[C@@H](Oc1cc(N2CCOCC2)cc2ncnc(Nc3ccc4ncccc4c3F)c12)C1COC1 [Example 61, (R)—N-(5-fluoroquinolin-6-yl)-7-morpholino-5-(1-(oxetan-3-yl)ethoxy)quinazolin-4-amine] | < 10 | < 10 | ≤ 10 | – | –
5 | C[C@H](CN(C)C)Oc1cc(-c2cnn(C)c2)cc2ncnc(Nc3ccc4nnccc4c3)c12 [Example 11, (R)—N-(5-((1-(dimethylamino)propan-2-yl)oxy)-7-(1-methyl-1H-pyrazol-4-yl)quinazolin-4-yl)cinnolin-6-amine] | 10.1 to 50 | > 50.1 | > 50.1 | – | –
6 | C[C@@H](Oc1cc(-c2cnn(C)c2)cc2ncnc(Nc3ccc4ncccc4c3F)c12)[C@@H]1COCCN1C (single isomer, unassigned) [Example 125] | – | – | 10.1 to 50 | < 10 | < 10
7 | C[C@@H](Oc1cc(N2CC3(COC3)C2)cc2ncnc(Nc3ccc4ncccc4c3F)c12)C1COC1 [Example 64] | < 10 | < 10 | ≤ 10 | – | –
8 | C[C@H](CN(C)C)Oc1cc(N2CCn3cncc3C2)cc2ncnc(Nc3ccc4ncccc4c3F)c12 [Example 90, (R)-7-(5,6-dihydroimidazo[1,5-a]pyrazin-7(8H)-yl)-5-((1-(dimethylamino)propan-2-yl)oxy)-N-(5-fluoroquinolin-6-yl)quinazolin-4-amine] | < 10 | 10.1 to 50 | ≤ 10 | – | –
9 | [2H]c1ccc2cc(Nc3ncnc4cc(-c5cnn(C)c5)cc(O[C@H](C)CN(C)C)c34)ccc2n1 [Example 156, (R)-5-((1-(dimethylamino)propan-2-yl)oxy)-7-(1-methyl-1H-pyrazol-4-yl)-N-(quinolin-6-yl-2-d)quinazolin-4-amine] | < 10 | < 10 | ≤ 10 | – | –
10 | C[C@@H](Oc1cc(-c2cnn(C)c2)cc2ncnc(Nc3ccc4ncccc4c3F)c12)[C@@H]1COCCN1C (single isomer, unassigned) [Example 126] | – | – | ≤ 10 | < 10 | < 10
11 | C[C@@H](Oc1cc(N2CCOC(C)(C)C2)cc2ncnc(Nc3ccc4ncccc4c3F)c12)C1COC1 [Example 60, (R)-7-(2,2-dimethylmorpholino)-N-(5-fluoroquinolin-6-yl)-5-(1-(oxetan-3-yl)ethoxy)quinazolin-4-amine] | < 10 | 10.1 to 50 | 10.1 to 50 | – | –

The next lines start with results.

Row | IC50 (EGFR (d746-750)) [nM] | IC50 (EGFR L858R) [nM] | IC50 [1] [nM] | SMILES | IC50 (EGFR (d746-750); [2]) [nM] | IC50 (EGFR L858R; [2]) [nM]
12 | < 10 | < 10 | ≤ 10 | CN1CCC(Oc2cc(-c3cnn(CC(F)F)c3)cc3ncnc(Nc4ccc5ncccc5c4F)c23)CC1 [Example 53, 7-(1-(2,2-difluoroethyl)-1H-pyrazol-4-yl)-N-(5-fluoroquinolin-6-yl)-5-((1-methylpiperidin-4-yl)oxy)quinazolin-4-amine] | – | –
13 | < 10 | 10.1 to 50 | ≤ 10 | C[C@H](CN(C)C)Oc1cc(N(C)C)cc2ncnc(Nc3ccc4ncccc4c3F)c12 [Example 153, (R)-5-((1-(dimethylamino)propan-2-yl)oxy)-N4-(5-fluoroquinolin-6-yl)-N7,N7-dimethylquinazoline-4,7-diamine] | – | –
14 | 10.1 to 50 | > 50.1 | > 50.1 | C[C@H](CN(C)C)Oc1cc(-c2cnn(C)c2)cc2ncnc(Nc3ccc4nc(O)ccc4c3F)c12 [Example 130, (R)-6-((5-((1-(dimethylamino)propan-2-yl)oxy)-7-(1-methyl-1H-pyrazol-4-yl)quinazolin-4-yl)amino)-5-fluoroquinolin-2-ol] | – | –
15 | < 10 | 10.1 to 50 | 10.1 to 50 | C[C@H](CN(C)C)Oc1cc(-c2cnn(C)c2)cc2ncnc(Nc3ccc4nccnc4c3)c12 [Example 103, (R)-5-((1-(dimethylamino)propan-2-yl)oxy)-7-(1-methyl-1H-pyrazol-4-yl)-N-(quinoxalin-6-yl)quinazolin-4-amine] | – | –
16 | < 10 | < 10 | ≤ 10 | C[C@H](CN(C)C)Oc1cc(-c2cnn(C)c2)cc2ncnc(Nc3cnc4ccccc4c3)c12 [Example 14, (R)-5-((1-(dimethylamino)propan-2-yl)oxy)-7-(1-methyl-1H-pyrazol-4-yl)-N-(quinolin-3-yl)quinazolin-4-amine] | – | –
17 | < 10 | 10.1 to 50 | 10.1 to 50 | COc1cc(O[C@H](C)CN(C)C)c2c(Nc3ccc4ncccc4c3F)ncnc2c1 [Example 57, (R)-5-((1-(dimethylamino)propan-2-yl)oxy)-N-(5-fluoroquinolin-6-yl)-7-methoxyquinazolin-4-amine] | – | –
18 | < 10 | < 10 | ≤ 10 | CC(CN(C)C)Oc1cc(-c2cnn(C)c2)cc2ncnc(Nc3ccc4ncccc4c3)c12 (racemic) [Example 42, (R)-5-((1-(dimethylamino)propan-2-yl)oxy)-7-(1-methyl-1H-pyrazol-4-yl)-N-(quinolin-6-yl)quinazolin-4-amine and (S)-5-((1-(dimethylamino)propan-2-yl)oxy)-7-(1-methyl-1H-pyrazol-4-yl)-N-(quinolin-6-yl)quinazolin-4-amine] | – | –
19 | < 10 | < 10 | ≤ 10 | C[C@@H](Oc1cc(-c2cnn(C)c2)cc2ncnc(Nc3ccc4ncccc4c3F)c12)C(CO)CO [Example 111, (R)-2-(1-((4-((5-fluoroquinolin-6-yl)amino)-7-(1-methyl-1H-pyrazol-4-yl)quinazolin-5-yl)oxy)ethyl)propane-1,3-diol] | – | –
20 | < 10 | 10.1 to 50 | ≤ 10 | [2H]c1c(-c2cc(O[C@H](C)CN(C)C)c3c(Nc4ccc5ncccc5c4F)ncnc3c2)cnn1C [Example 159, (R)-5-((1-(dimethylamino)propan-2-yl)oxy)-N-(5-fluoroquinolin-6-yl)-7-(1-methyl-1H-pyrazol-4-yl-5-d)quinazolin-4-amine] | – | –
21 | 10.1 to 50 | 10.1 to 50 | > 50.1 | C[C@H](CN(C)C)Oc1cc(-c2cnn(C)c2)cc2nc[n+]([O-])c(Nc3ccc4ncccc4c3F)c12 (single isomer, unassigned) [Example 128] | – | –
22 | < 10 | 10.1 to 50 | 10.1 to 50 | C[C@H](CN(C)C)Oc1cc(N2CC(C)(O)C2)cc2ncnc(Nc3ccc4ncccc4c3F)c12 [Example 93, (R)-1-(5-((1-(dimethylamino)propan-2-yl)oxy)-4-((5-fluoroquinolin-6-yl)amino)quinazolin-7-yl)-3-methylazetidin-3-ol] | – | –
23 | – | – | > 50.1 | C[C@H](CN(C)C)Oc1cc(-c2cnn(C)c2)cc2ncnc(Nc3ccc4ncccc4c3)c12 (single isomer, unassigned) [Example 43, (R)-5-((1-(dimethylamino)propan-2-yl)oxy)-7-(1-methyl-1H-pyrazol-4-yl)-N-(quinolin-6-yl)quinazolin-4-amine or (S)-5-((1-(dimethylamino)propan-2-yl)oxy)-7-(1-methyl-1H-pyrazol-4-yl)-N-(quinolin-6-yl)quinazolin-4-amine] | 10.1 to 50 | > 50.1
24 | < 10 | 10.1 to 50 | 10.1 to 50 | C[C@H](CN(C)C)Oc1cc(-c2cnn(C)c2)cc2ncnc(Nc3ccc4c(ccc[n+]4[O-])c3F)c12 (single isomer, unassigned) [Example 129] | – | –
25 | < 10 | < 10 | ≤ 10 | COC[C@@H](C)Oc1cc(-c2cnn(C)c2)cc2ncnc(Nc3ccc4ncccc4c3F)c12 [Example 31, (R)—N-(5-fluoroquinolin-6-yl)-5-((1-methoxypropan-2-yl)oxy)-7-(1-methyl-1H-pyrazol-4-yl)quinazolin-4-amine] | – | –
26 | < 10 | < 10 | ≤ 10 | [2H]c1c(-c2cnn(C)c2)cc(O[C@H](C)CN(C)C)c2c(Nc3ccc4ncccc4c3F)ncnc12 [Example 158, (R)-5-((1-(dimethylamino)propan-2-yl)oxy)-N-(5-fluoroquinolin-6-yl)-7-(1-methyl-1H-pyrazol-4-yl)quinazolin-8-d-4-amine] | – | –
27 | – | – | 10.1 to 50 | C[C@H](CN(C)C)Oc1cc(N2CCO[C@@H](C(F)F)C2)cc2ncnc(Nc3ccc4ncccc4c3F)c12 (single isomer, unassigned) [Example 99b, 7-((R)-2-(difluoromethyl)morpholino)-5-(((R)-1-(dimethylamino)propan-2-yl)oxy)-N-(5-fluoroquinolin-6-yl)quinazolin-4-amine or 7-((S)-2-(difluoromethyl)morpholino)-5-(((R)-1-(dimethylamino)propan-2-yl)oxy)-N-(5-fluoroquinolin-6-yl)] | < 10 | 10.1 to 50
